Data taken from US9884063B2, “Amido-substituted azole compounds” (Bayer Pharma Aktiengesellschaft, priority 2014, dated 2018).

How the values were obtained:
[1] = molecular target: T1, TNKS1 (Homo sapiens, UniProt O95271); experiment: Modified TNKS1 Assay 3 (BPS kit #80573, biotin-NAD+, 96 well); type: biochemical; conditions: human TNKS1, BPS kit #80573, 96 well
T1 sequence (O95271 1-1327): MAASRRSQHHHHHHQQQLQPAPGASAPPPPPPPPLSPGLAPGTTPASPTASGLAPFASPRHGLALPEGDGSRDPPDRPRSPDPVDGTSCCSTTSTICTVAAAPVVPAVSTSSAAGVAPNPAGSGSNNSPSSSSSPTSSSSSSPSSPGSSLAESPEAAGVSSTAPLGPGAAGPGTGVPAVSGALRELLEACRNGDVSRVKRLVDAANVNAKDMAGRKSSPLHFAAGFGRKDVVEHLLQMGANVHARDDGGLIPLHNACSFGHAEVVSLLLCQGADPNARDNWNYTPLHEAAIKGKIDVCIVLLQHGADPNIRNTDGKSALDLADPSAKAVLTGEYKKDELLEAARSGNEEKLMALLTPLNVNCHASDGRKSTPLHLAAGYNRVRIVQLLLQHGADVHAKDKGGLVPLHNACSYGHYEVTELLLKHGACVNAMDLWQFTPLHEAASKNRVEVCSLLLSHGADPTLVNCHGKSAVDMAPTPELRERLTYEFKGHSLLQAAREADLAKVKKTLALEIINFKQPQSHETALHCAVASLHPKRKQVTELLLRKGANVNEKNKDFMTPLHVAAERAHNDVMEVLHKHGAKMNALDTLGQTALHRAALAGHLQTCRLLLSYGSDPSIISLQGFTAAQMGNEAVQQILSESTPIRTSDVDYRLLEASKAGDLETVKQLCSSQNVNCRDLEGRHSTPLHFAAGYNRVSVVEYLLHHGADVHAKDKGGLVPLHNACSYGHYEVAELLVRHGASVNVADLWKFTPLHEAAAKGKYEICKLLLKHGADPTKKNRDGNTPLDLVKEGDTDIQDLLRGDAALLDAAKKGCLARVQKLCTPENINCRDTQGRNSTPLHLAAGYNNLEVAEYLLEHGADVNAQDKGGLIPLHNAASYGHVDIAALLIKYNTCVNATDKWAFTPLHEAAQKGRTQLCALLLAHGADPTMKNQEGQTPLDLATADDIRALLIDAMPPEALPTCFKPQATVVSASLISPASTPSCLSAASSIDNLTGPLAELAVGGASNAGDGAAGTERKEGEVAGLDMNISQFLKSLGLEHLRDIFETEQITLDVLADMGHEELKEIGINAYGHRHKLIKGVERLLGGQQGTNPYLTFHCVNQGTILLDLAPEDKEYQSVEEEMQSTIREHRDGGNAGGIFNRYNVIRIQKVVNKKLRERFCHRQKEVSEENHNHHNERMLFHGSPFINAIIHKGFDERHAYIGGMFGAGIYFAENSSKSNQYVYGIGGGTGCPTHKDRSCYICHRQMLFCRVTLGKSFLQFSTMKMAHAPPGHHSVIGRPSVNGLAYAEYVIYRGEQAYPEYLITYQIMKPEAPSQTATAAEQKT
Procedure, shortened: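 Chemiluminescent assay of TNKS1-catalysed ribosylation of a protein substrate with biotin-labelled NAD+, detected via streptavidin-HRP; run per kit protocol. Inhibition lowers the signal, and IC50 is the compound concentration halving the normalised readout.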

[2] = system: wildtype Wnt signaling cascade; experiment: HEK293 TOP Assay (Super TopFlash luciferase reporter, Wnt-3a stimulated); type: cell-based; conditions: Homo sapiens, HEK293, 16 h, HEK293 TOP reporter cell line, Wnt-3a at EC50, 16 hours incubation, compound dilution series 50 μM to 15 nM
Procedure, shortened: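 HEK293 cells stably carrying Super TopFlash (TOP) or FOP reporter, stimulated with recombinant human Wnt-3a (2500–5 ng/ml, two-fold steps). Both lines incubated in parallel with compound from 50 μM to 15 nM (3.16-fold) in CAFTY buffer pH 7.4 with 2 mM Ca2+ and 0.01% BSA; selectivity judged TOP vs FOP.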

How did the IC50 [1] turn out when `CN(C)CCNC(=O)c1nc[nH]c1C(=O)Nc1ccc(NC(=O)c2ccc(S(C)(=O)=O)cc2Cl)cc1` [Example 54, N^5-(4-{[2-chloro-4-(methylsulfonyl)benzoyl]amino}phenyl)-N^4-[2-(dimethylamino)ethyl]-1H-imidazole-4,5-dicarboxamide] was run?
Its IC50 is 20 nM.

What about the IC50 [2] of the same molecule?
Its IC50 is 1450 nM.

Which IC50 [1] does the source give for `O=C(Nc1ccc(NC(=O)c2[nH]cnc2C(=O)NCCN2CCCCC2)cc1)c1cc(OC(F)(F)F)ccc1Br` [Example 63, N^5-(4-{[2-bromo-5-(trifluoromethoxy)benzoyl]amino}phenyl)-N^4-[2-(piperidin-1-yl)ethyl]-1H-imidazole-4,5-dicarboxamide] here?
The IC50 was 70 nM.

What about the IC50 [2] of the same molecule?
The IC50 was 110 nM.

For `CNC(=O)c1[nH]c(C)nc1C(=O)Nc1ccc(NC(=O)c2ccc(F)cc2Cl)cc1` [Example 65, N^4-{4-[(2-chloro-4-fluorobenzoyl)amino]phenyl}-N^5,2-dimethyl-1H-imidazole-4,5-dicarboxamide], which IC50 [1] is on record?
Its IC50 is 160 nM.

What about the IC50 [2] of the same molecule?
The IC50 was 800 nM.

For `CCc1nc(C(=O)Nc2ccc(NC(=O)c3ccc(F)cc3Cl)cc2)c(C(=O)NCCN(C)C)[nH]1` [Example 69, N^4-{4-[(2-chloro-4-fluorobenzoyl)amino]phenyl}-N^5-[2-(dimethylamino)ethyl]-2-ethyl-1H-imidazole-4,5-dicarboxamide], which IC50 [1] is on record?
Its IC50 is 50 nM.

And the IC50 [2]?
The IC50 was 190 nM.

With `CCc1nc(C(=O)Nc2ccc(NC(=O)c3ccc(F)cc3Cl)cc2)c(C(=O)NCCN2CCCCC2)[nH]1` [Example 70, N^4-{4-[(2-chloro-4-fluorobenzoyl)amino]phenyl}-2-ethyl-N^5-[2-(piperidin-1-yl)ethyl]-1H-imidazole-4,5-dicarboxamide] as the molecule, how does the IC50 [1] read?
Its IC50 is 20 nM.

And the IC50 [2]?
The IC50 was 130 nM.

Which IC50 [1] does the source give for `O=C(Nc1ccc(NC(=O)c2[nH]cnc2C(=O)NCCN2CCCCC2)cc1F)c1ccc(F)cc1Cl` [Example 74, N^5-{4-[(2-chloro-4-fluorobenzoyl)amino]-3-fluorophenyl}-N^4-[2-(piperidin-1-yl)ethyl]-1H-imidazole-4,5-dicarboxamide] here?
Its IC50 is 2 nM.

And the IC50 [2]?
Its IC50 is 70 nM.

Which results are given for `O=C(Nc1ccc(NC(=O)c2[nH]cnc2C(=O)NCCN2CCCCC2)cc1F)c1ccccc1Cl` [Example 82, N^5-{4-[(2-chlorobenzoyl)amino]-3-fluorophenyl}-N^4-[2-(piperidin-1-yl)ethyl]-1H-imidazole-4,5-dicarboxamide]?
IC50 [1]: 10 nM; IC50 [2]: 90 nM

What does the source list for `COc1cc(NC(=O)c2[nH]cnc2C(=O)NCCN2CCCCC2)ccc1NC(=O)c1ccc(F)cc1Cl` [Example 97, N^5-{4-[(2-chloro-4-fluorobenzoyl)amino]-3-methoxyphenyl}-N^4-[2-(piperidin-1-yl)ethyl]-1H-imidazole-4,5-dicarboxamide]?
IC50 [1]: 90 nM; IC50 [2]: 80 nM

What does the source list for `CNC(=O)c1nc[nH]c1C(=O)Nc1ccc(NC(=O)c2ccccc2Cl)c(OC)c1` [Example 99, N^5-{4-[(2-chlorobenzoyl)amino]-3-methoxyphenyl}-N^4-methyl-1H-imidazole-4,5-dicarboxamide]?
IC50 [1]: > 500 nM; IC50 [2]: 540 nM

How did the IC50 [1] turn out when `COc1cc(NC(=O)c2[nH]cnc2C(=O)NCCN2CCCCC2)ccc1NC(=O)c1ccccc1Cl` [Example 101, N^5-{4-[(2-chlorobenzoyl)amino]-3-methoxyphenyl}-N^4-[2-(piperidin-1-yl)ethyl]-1H-imidazole-4,5-dicarboxamide] was run?
The IC50 was 40 nM.

And the IC50 [2]?
Its IC50 is 220 nM.

How did the IC50 [1] turn out when `CC(C)c1nc(C(=O)Nc2ccc(NC(=O)c3ccc(F)cc3Cl)cc2)c(C(=O)NCCN2CCCCC2)[nH]1` [Example 108, N^4-{4-[(2-chloro-4-fluorobenzoyl)amino]phenyl}-2-isopropyl-N^5-[2-(piperidin-1-yl)ethyl]-1H-imidazole-4,5-dicarboxamide] was run?
The IC50 was 460 nM.

And the IC50 [2]?
The IC50 was 5000 nM.

How did the IC50 [1] turn out when `NC(=O)c1nc[nH]c1C(=O)Nc1ccc(NC(=O)c2ccccc2Cl)cc1` [Example 120, N^5-{4-[(2-chlorobenzoyl)amino]phenyl}-1H-imidazole-4,5-dicarboxamide] was run?
The IC50 was over 500 nM.

And the IC50 [2]?
Its IC50 is 1200 nM.
